Results taken from patent US9682995B2, “Amino-substituted isothiazoles” (BAYER PHARMA AKTIENGESELLSCHAFT, priority 2013, dated 2017).
pIC50: −log10 of the molar value.

What was measured:
human kinase Mps-1 = human kinase Mps-1 (Homo sapiens (Human), UniProt P33981); experiment: Mps-1 kinase assay (TR-FRET); assay type: biochemical; conditions: 10 μM ATP; read-out: Mps1 avg (IC50 [mol/l])
Experimental: The human kinase Mps-1 phosphorylates a biotinylated substrate peptide. Detection of the phosphorylated product is achieved by time-resolved fluorescence resonance energy transfer (TR-FRET) from Europium-labelled anti-phospho-Serine/Threonine antibody as donor to streptavidin labelled with cross-linked allophycocyanin (SA-XLent) as acceptor. Compounds are tested for their inhibition of the kinase activity.
N-terminally GST-tagged human full length recombinant Mps-1 kinase (purchased from Invitrogen, Karslruhe, Germany, cat. no PV4071) was used. As substrate for the kinase reaction a biotinylated peptide of the amino-acid sequence biotin-Ahx-PWDPDDADITEILG (C-terminus in amide form, purchased from Biosyntan GmbH, Berlin) was used.
For the assay 50 nl of a 100-fold concentrated solution of the test compound in DMSO was pipetted into a black low volume 384 well microtiter plate (Greiner Bio-One, Frickenhausen, Germany), 2 μl of a solution of Mps-1 in assay buffer [0.1 mM sodium-ortho-vanadate, 10 mM MgCl2, 2 mM DTT, 25 mM Hepes pH 7.7, 0.05% BSA (w/v), 0.001% Pluronic F-127] were added and the mixture was incubated for 15 min at 22° C. to allow pre-binding of the test compounds to Mps-1 before the start of the kinase reaction. Then the kinase reaction was started by the addition of 3 μl of a solution of 16.7 μM adenosine-tri-phosphate (ATP, 16.7 μM=>final conc. in the 5 μl assay volume is 10 μM) and peptide substrate (1.67 μM=>final conc. in the 5 μl assay volume is 1 μM) in assay buffer and the resulting mixture was incubated for a reaction time of 60 min at 22° C. The concentration of Mps-1 in the assay was adjusted to the activity of the enzyme lot and was chosen appropriate to have the assay in the linear range, typical enzyme concentrations were in the range of about 0.5 nM (final conc. in the 5 μl assay volume). The reaction was stopped by the addition of 5 μl of a solution of TR-FRET detection reagents (100 mM Hepes pH 7.4, 0.1% BSA, 40 mM EDTA, 140 nM Streptavidin-XLent [#61GSTXLB, Fa. Cis Biointernational, Marcoule, France], 1.5 nM anti-phospho(Ser/Thr)-Europium-antibody [#AD0180, PerkinElmer LAS, Rodgau-Jugesheim, Germany]. Instead of the 1.5 nM anti-phospho(Ser/Thr)-Europium-antibody a mixture of 2 nM unlabeled anti-phospho ser/thr-pro antibody MPM-2 [Millipore cat. #05-368] and 1 nM LANCE EU-W1024 labeled anti-mouse IgG antibody [Perkin-Elmer, product no. AD0077] can be used).
The resulting mixture was incubated 1 h at 22° C. to allow the binding of the phosphorylated peptide to the anti-phospho(Ser/Thr)-Europium-antibody. Subsequently the amount of phosphorylated substrate was evaluated by measurement of the resonance energy transfer from the Europium-labelled anti-phospho(Ser/Thr) antibody to the Streptavidin-XLent. Therefore, the fluorescence emissions at 620 nm and 665 nm after excitation at 350 nm was measured in a Viewlux TR-FRET reader (PerkinElmer LAS, Rodgau-Jugesheim, Germany). The “blank-corrected normalized ratio” (a Viewlux specific readout, similar to the traditional ratio of the emissions at 665 nm and at 622 nm, in which blank and Eu-donor crosstalk are subtracted from the 665 nm signal before the ratio is calculated) was taken as the measure for the amount of phosphorylated substrate. The data were normalised (enzyme reaction without inhibitor=0% inhibition, all other assay components but no enzyme=100% inhibition).

[1] = test system: spindle assembly checkpoint; experiment: SAC-Formation - Nocodazole-Induced Assay; assay type: cell-based; conditions: Homo sapiens; HeLa cells, nocodazole 0.1 μg/ml, 24 h, phosphorylated histone H3 on serine 10
Text: The spindle assembly checkpoint assures the proper segregation of chromosomes during mitosis. Upon entry into mitosis, chromosomes begin to condensate which is accompanied by the phosphorylation of histone H3 on serine 10. Dephosphorylation of histone H3 on serine 10 begins in anaphase and ends at early telophase. Accordingly, phosphorylation of histone H3 on serine 10 can be utilized as a marker of cells in mitosis. Nocodazole is a microtubule destabilizing substance. Paclitaxel is a microtubule stabilizing compound. Thus, nocodazole as well as paclitaxel interfere with microtubule dynamics and mobilize the spindle assembly checkpoint. […] The mitotic breakthrough can be detected by the decrease of cells with phosphorylation of histone H3 on serine 10. This decline is used as a marker to determine the capability of compounds of the present invention to induce a mitotic breakthrough. The typical morphological alteration of nuclei with a prematurely completed mitosis after SAC-inhibition can be monitored via image analysis routines supporting those findings.
The nocodazole and paclitaxel variations were used to focus on compounds that are capable of inhibiting a SAC induced by both microtubule destabilization as well as microtubule stabilization. When SAC inducing agents and compounds are given simultaneously, inhibitors that effectively block the SAC during formation or abrogation are identified. When cells are incubated with a SAC inducing agent and the SAC interfering compound is given after a defined time, inhibitors are identified that effectively block SAC abrogation.
Cultivated cells of the human cervical tumor cell line HeLa (ATCC CCL-2) were plated at a density of 1000 cells/well in a 1536-well microtiter plate in 2 μl PAA Ham's F12 Medium supplemented with 1% (v/v) glutamine, 1% (v/v) penicillin, 1% (v/v) streptomycin and 10% (v/v) fetal calf serum. After incubation overnight at 37° C., 10 μl/well nocodazole at a final concentration of 0.1 μg/ml were added to cells. Test compounds solubilized in dimethyl sulfoxide (DMSO) were added at various concentrations (0 μM, as well as in the range of 0.005 μM-20 μM; the final concentration of the solvent DMSO was 0.5% (v/v)). Cells were incubated for 24 h at 37° C. in the presence of test compounds in combination with nocodazole. Thereafter, cells were fixed in 4% (v/v) paraformaldehyde in phosphate buffered saline (PBS) at 4° C. overnight then permeabilized in 0.1% (v/v) Triton X™ 100 in PBS at room temperature for 20 min and blocked in 0.5% (v/v) bovine serum albumin (BSA) in PBS at room temperature for 15 min. After washing with PBS, 5 μl/well antibody solution (anti-phospho-histone H3 clone 3H10, FITC; Millipore, Cat #16-222; 1:1000 dilution) was added to cells, which were incubated for 2 h at room temperature. Afterwards, cells were washed with PBS and 5 μl/well solution of HOECHST 33342 dye (5 μg/ml) was added to cells and cells were incubated 15 min at room temperature in the dark. Cells were washed twice with PBS then covered with PBS and stored at 4° C. until analysis. Images were acquired with a PERKIN ELMER OPERA™ High-Content Analysis reader. Images were analyzed with image analysis software MetaXpress™ from Molecular devices utilizing the Mitotic Index application module. In this assay both labels HOECHST 33342 and phosphorylated Histone H3 on serine 10 were measured. HOECHST 33342 labels the DNA and is used to count the cell number. The staining of phosphorylated Histone H3 on serine 10 determines the number of mitotic cells. […] Otherwise cells were arrested at G2/M phase of the cell cycle progression. The raw assay data were further analyzed by four-parametric hill equation using Genedata's Assay Analyzer and Condoseo software.

Chain of human kinase Mps-1 (P33981 whole entry): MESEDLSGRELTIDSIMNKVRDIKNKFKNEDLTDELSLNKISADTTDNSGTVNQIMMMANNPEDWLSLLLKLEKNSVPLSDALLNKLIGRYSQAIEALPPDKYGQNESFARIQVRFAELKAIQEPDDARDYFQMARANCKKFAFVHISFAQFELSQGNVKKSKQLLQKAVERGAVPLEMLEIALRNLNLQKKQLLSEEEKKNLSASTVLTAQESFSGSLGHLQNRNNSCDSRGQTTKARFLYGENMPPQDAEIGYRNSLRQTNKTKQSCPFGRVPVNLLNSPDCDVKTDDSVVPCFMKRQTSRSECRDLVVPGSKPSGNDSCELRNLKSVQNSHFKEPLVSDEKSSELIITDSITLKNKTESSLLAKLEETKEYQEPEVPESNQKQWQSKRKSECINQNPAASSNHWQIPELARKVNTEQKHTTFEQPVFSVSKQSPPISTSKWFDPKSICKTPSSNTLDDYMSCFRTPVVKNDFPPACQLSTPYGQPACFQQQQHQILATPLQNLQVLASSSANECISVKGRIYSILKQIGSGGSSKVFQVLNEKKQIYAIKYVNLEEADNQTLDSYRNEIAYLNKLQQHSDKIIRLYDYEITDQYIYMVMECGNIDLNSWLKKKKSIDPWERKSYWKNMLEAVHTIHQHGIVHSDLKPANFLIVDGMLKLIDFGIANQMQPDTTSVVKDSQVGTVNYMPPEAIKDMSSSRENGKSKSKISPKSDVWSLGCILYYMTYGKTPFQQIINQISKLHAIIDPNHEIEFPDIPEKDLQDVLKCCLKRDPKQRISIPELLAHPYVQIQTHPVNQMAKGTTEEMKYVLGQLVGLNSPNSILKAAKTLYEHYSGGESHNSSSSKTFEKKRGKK

COc1ccc(NC(=O)c2c(C)nsc2Nc2ccc(C#N)cn2)cn1 [Example 39, 5-[(5-Cyanopyridin-2-yl)amino]-N-(6-methoxypyridin-3-yl)-3-methyl-1,2-thiazole-4-carboxamide]
pIC50 (human kinase Mps-1): < 4.70 | pIC50 [1]: 5.89

Cc1nsc(Nc2cnc3ccccc3n2)c1C(=O)Nc1ccc(Oc2ccccc2)nc1 [Example 112, 3-Methyl-N-(6-phenoxypyridin-3-yl)-5-(quinoxalin-2-ylamino)-1,2-thiazole-4-carboxamide]
pIC50 (human kinase Mps-1): < 4.70 | pIC50 [1]: 7.74

CCc1ccccc1NC(=O)c1c(C)nsc1Nc1cc(-n2ccnc2)ncn1 [Example 9, N-(2-Ethylphenyl)-5-{[6-(1H-imidazol-1-yl)pyrimidin-4-yl]amino}-3-methyl-1,2-thiazole-4-carboxamide]
pIC50 (human kinase Mps-1): < 4.70 | pIC50 [1]: 5.89

CCc1ccccc1NC(=O)c1c(C)nsc1Nc1cc(NC)ncn1 [Example 15, N-(2-Ethylphenyl)-3-methyl-5-{[6-(methylamino)pyrimidin-4-yl]amino}-1,2-thiazole-4-carboxamide]
pIC50 (human kinase Mps-1): < 4.70 | pIC50 [1]: 4.80

CCOC(=O)c1sc(Nc2snc(C)c2C(=O)Nc2ccccc2CC)nc1C [Example 26, Ethyl 2-({4-[(2-ethylphenyl)carbamoyl]-3-methyl-1,2-thiazol-5-yl}amino)-4-methyl-1,3-thiazole-5-carboxylate]
pIC50 (human kinase Mps-1): < 4.70 | pIC50 [1]: 6.85

COC(=O)c1cnc(Nc2snc(C)c2C(=O)Nc2ccc(OC)nc2)cn1 [Example 32, Methyl 5-({4-[(6-methoxypyridin-3-yl)carbamoyl]-3-methyl-1,2-thiazol-5-yl}amino)-pyrazine-2-carboxylate]
pIC50 (human kinase Mps-1): < 4.70 | pIC50 [1]: 6.29

Cc1nsc(Nc2cc(C#N)ccn2)c1C(=O)Nc1ccc(Cl)c(F)c1 [Example 54, N-(4-Chloro-3-fluorophenyl)-5-[(4-cyanopyridin-2-yl)amino]-3-methyl-1,2-thiazole-4-carboxamide]
pIC50 (human kinase Mps-1): < 4.70 | pIC50 [1]: 7.72

Cc1nsc(Nc2ncc(C(=O)N(C)C)s2)c1C(=O)Nc1ccc(F)c(F)c1 [Example 49, N-(3,4-Difluorophenyl)-5-{[5-(dimethylcarbamoyl)-1,3-thiazol-2-yl]amino}-3-methyl-1,2-thiazole-4-carboxamide]
pIC50 (human kinase Mps-1): < 4.70 | pIC50 [1]: 6.46

Cc1nsc(Nc2cnc(C(=O)N(C)C)cn2)c1C(=O)Nc1ccc(F)c(F)c1 [Example 109, 5-({4-[(3,4-Difluorophenyl)carbamoyl]-3-methyl-1,2-thiazol-5-yl}amino)-N,N-dimethylpyrazine-2-carboxamide]
pIC50 (human kinase Mps-1): < 4.70 | pIC50 [1]: 5.96

CCOC(=O)c1coc(Nc2snc(C)c2C(=O)Nc2ccc(F)c(F)c2)n1 [Example 98, Ethyl 2-({4-[(3,4-difluoro-phenyl)carbamoyl]-3-methyl-1,2-thiazol-5-yl}amino)-1,3-oxazole-4-carboxylate]
pIC50 (human kinase Mps-1): 4.74 | pIC50 [1]: 5.52

COc1ccc(Oc2ccc(NC(=O)c3c(C)nsc3Nc3cc(C#N)ccn3)cn2)cc1 [Example 117, 5-[(4-Cyanopyridin-2-yl)amino]-N-[6-(4-methoxyphenoxy)pyridin-3-yl]-3-methyl-1,2-thiazole-4-carboxamide]
pIC50 (human kinase Mps-1): < 4.70 | pIC50 [1]: 6.57

Cc1nsc(Nc2cc(C#N)ccn2)c1C(=O)Nc1ccc(Oc2ccccc2)nc1 [Example 111, 5-[(4-Cyanopyridin-2-yl)amino]-3-methyl-N-(6-phenoxypyridin-3-yl)-1,2-thiazole-4-carboxamide]
pIC50 [1]: 6.70

CCc1ccccc1NC(=O)c1c(C)nsc1Nc1cnccn1 [Example 1, N-(2-Ethylphenyl)-3-methyl-5-(pyrazin-2-ylamino)-1,2-thiazole-4-carboxamide]
pIC50 (human kinase Mps-1): < 4.70 | pIC50 [1]: 5.74

CCc1ccccc1NC(=O)c1c(C)nsc1Nc1ncnc2ccccc12 [Example 10, N-(2-Ethylphenyl)-3-methyl-5-(quinazolin-4-ylamino)-1,2-thiazole-4-carboxamide]
pIC50 (human kinase Mps-1): < 4.70 | pIC50 [1]: 5.19

Cc1nsc(Nc2cnc3ccccc3n2)c1C(=O)Nc1ccc(Cl)c(F)c1 [Example 40, N-(4-Chloro-3-fluorophenyl)-3-methyl-5-(quinoxalin-2-ylamino)-1,2-thiazole-4-carboxamide]
pIC50 (human kinase Mps-1): < 4.70 | pIC50 [1]: 7.35

Cc1nsc(Nc2cnc3cc(F)ccc3n2)c1C(=O)Nc1ccc(F)c(F)c1 [Example 46, N-(3,4-Difluorophenyl)-5-[(6-fluoroquinoxalin-2-yl)amino]-3-methyl-1,2-thiazole-4-carboxamide]
pIC50 (human kinase Mps-1): < 4.70 | pIC50 [1]: 7.21

Cc1nsc(Nc2ccc(C#N)cn2)c1C(=O)Nc1ccc(F)c(F)c1 [Example 28, 5-[(5-Cyanopyridin-2-yl)amino]-N-(3,4-difluorophenyl)-3-methyl-1,2-thiazole-4-carboxamide]
pIC50 (human kinase Mps-1): < 4.70 | pIC50 [1]: 7.39

COc1ccc(NC(=O)c2c(C)nsc2Nc2cccc(C#N)n2)cn1 [Example 37, 5-[(6-Cyanopyridin-2-yl)amino]-N-(6-methoxypyridin-3-yl)-3-methyl-1,2-thiazole-4-carboxamide]
pIC50 (human kinase Mps-1): < 4.70 | pIC50 [1]: 5.62

Cc1nsc(Nc2cc(C#N)ccn2)c1C(=O)Nc1ccc(Oc2ccc(F)cc2F)nc1 [Example 114, 5-[(4-Cyanopyridin-2-yl)amino]-N-[6-(2,4-difluorophenoxy)pyridin-3-yl]-3-methyl-1,2-thiazole-4-carboxamide]
pIC50 [1]: 7.51
